Assay [1] addresses T1, Serine/threonine-protein kinase 3 (Homo sapiens, UniProt Q13188).
T1 sequence (Q13188 whole entry): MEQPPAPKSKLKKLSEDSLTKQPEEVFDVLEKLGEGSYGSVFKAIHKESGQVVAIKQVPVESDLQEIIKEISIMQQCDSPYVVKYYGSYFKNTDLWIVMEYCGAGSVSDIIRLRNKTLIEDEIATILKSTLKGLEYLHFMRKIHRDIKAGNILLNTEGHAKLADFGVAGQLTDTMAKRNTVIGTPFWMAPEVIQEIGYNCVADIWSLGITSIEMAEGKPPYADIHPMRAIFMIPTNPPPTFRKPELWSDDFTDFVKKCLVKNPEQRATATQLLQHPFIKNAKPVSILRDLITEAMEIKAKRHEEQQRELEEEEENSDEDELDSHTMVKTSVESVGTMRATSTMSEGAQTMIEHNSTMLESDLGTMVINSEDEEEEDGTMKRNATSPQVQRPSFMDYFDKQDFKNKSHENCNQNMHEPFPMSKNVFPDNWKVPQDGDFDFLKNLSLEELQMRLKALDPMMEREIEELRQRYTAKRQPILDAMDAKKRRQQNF

Assay [2] addresses T2, Peroxisomal acyl-coenzyme A oxidase 3 (Homo sapiens, UniProt O15254).
T2 sequence (O15254 whole entry): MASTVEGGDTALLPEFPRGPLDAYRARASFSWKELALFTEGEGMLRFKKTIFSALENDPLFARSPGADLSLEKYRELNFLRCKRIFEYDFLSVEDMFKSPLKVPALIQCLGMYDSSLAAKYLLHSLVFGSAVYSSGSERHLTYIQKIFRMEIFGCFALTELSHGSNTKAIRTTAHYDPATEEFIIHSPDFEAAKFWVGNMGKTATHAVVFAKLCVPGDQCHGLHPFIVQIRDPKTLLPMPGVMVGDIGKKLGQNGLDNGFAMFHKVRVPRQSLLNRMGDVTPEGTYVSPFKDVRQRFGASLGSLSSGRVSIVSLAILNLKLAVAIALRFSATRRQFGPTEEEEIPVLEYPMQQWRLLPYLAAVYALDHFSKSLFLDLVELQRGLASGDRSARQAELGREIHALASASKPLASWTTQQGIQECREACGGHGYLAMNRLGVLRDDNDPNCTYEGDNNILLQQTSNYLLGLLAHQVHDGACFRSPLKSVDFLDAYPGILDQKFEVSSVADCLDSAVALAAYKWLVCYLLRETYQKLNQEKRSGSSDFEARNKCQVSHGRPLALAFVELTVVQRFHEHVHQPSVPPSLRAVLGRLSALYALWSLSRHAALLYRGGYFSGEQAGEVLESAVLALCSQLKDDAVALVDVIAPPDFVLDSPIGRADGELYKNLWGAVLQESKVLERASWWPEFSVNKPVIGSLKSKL

For assay [3], the target named is BMP-2-inducible protein kinase (Homo sapiens, UniProt Q9NSY1).
Assay [4] addresses T3, Beta-adrenergic receptor kinase 1 (Homo sapiens, UniProt P25098).
T3 sequence (P25098 whole entry): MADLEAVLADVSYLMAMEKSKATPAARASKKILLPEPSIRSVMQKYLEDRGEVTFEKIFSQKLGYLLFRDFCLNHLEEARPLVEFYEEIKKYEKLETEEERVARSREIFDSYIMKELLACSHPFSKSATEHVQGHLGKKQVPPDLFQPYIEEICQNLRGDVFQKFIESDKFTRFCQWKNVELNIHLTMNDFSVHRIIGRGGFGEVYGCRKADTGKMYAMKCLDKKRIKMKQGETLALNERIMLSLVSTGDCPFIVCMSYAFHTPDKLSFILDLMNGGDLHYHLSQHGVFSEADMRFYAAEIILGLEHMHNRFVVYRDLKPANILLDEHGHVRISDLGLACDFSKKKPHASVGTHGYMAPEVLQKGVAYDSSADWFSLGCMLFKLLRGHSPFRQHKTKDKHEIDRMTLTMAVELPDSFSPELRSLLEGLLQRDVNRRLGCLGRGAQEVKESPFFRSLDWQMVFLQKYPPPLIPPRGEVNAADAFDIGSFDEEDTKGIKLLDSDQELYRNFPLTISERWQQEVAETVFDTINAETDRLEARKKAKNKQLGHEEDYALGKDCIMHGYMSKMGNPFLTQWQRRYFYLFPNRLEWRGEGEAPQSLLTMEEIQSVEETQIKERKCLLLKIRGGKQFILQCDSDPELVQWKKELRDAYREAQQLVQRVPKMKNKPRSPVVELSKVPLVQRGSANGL

The target of assay [5] is Tyrosine-protein kinase SYK (Homo sapiens, UniProt P43405).
Assay [6] deals with Tyrosine-protein kinase Lyn (Homo sapiens, UniProt P07948).
Chain of Tyrosine-protein kinase Lyn (P07948 whole entry): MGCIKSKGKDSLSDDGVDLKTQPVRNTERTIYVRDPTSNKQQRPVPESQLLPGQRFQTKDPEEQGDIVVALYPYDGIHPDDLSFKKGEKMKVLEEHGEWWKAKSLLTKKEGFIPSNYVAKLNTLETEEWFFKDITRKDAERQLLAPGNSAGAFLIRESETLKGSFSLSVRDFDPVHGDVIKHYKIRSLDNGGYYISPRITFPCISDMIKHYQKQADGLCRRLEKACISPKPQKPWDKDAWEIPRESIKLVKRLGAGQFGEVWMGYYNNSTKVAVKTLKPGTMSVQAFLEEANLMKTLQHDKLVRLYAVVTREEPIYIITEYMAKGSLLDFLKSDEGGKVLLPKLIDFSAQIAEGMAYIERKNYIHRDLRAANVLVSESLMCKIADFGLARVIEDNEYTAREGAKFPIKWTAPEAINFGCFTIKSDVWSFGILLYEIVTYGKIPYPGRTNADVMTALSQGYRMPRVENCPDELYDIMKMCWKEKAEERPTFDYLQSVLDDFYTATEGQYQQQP
Assay [7] has as its target U5 small nuclear ribonucleoprotein 200 kDa helicase (Homo sapiens, UniProt O75643).
For assay [8], the target named is T4, ATP-dependent RNA helicase DDX1 (Homo sapiens, UniProt Q92499).
T4 sequence (Q92499 whole entry): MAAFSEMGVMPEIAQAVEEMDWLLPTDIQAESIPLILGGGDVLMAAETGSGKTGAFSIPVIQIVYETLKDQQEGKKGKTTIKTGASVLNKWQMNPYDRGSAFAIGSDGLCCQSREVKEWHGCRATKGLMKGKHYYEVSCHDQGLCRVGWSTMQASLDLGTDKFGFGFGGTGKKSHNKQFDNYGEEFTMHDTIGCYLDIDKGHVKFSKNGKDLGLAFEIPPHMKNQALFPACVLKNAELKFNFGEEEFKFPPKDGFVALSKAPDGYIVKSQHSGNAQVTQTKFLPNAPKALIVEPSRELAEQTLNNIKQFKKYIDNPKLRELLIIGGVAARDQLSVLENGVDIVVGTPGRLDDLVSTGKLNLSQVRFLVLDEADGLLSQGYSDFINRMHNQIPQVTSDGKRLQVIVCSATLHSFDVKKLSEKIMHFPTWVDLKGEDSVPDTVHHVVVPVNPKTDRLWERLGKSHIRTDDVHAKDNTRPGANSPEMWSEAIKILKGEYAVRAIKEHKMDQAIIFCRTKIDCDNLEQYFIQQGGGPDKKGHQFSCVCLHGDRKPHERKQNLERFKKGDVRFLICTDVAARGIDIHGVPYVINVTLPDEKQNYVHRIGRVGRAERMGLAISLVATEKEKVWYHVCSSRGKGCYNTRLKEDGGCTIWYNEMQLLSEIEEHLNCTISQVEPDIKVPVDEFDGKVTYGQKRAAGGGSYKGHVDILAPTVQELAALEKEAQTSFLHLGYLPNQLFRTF

The target in assay [9] is Serine/threonine-protein kinase N2 (Homo sapiens, UniProt Q16513).
Chain of Serine/threonine-protein kinase N2 (Q16513 whole entry): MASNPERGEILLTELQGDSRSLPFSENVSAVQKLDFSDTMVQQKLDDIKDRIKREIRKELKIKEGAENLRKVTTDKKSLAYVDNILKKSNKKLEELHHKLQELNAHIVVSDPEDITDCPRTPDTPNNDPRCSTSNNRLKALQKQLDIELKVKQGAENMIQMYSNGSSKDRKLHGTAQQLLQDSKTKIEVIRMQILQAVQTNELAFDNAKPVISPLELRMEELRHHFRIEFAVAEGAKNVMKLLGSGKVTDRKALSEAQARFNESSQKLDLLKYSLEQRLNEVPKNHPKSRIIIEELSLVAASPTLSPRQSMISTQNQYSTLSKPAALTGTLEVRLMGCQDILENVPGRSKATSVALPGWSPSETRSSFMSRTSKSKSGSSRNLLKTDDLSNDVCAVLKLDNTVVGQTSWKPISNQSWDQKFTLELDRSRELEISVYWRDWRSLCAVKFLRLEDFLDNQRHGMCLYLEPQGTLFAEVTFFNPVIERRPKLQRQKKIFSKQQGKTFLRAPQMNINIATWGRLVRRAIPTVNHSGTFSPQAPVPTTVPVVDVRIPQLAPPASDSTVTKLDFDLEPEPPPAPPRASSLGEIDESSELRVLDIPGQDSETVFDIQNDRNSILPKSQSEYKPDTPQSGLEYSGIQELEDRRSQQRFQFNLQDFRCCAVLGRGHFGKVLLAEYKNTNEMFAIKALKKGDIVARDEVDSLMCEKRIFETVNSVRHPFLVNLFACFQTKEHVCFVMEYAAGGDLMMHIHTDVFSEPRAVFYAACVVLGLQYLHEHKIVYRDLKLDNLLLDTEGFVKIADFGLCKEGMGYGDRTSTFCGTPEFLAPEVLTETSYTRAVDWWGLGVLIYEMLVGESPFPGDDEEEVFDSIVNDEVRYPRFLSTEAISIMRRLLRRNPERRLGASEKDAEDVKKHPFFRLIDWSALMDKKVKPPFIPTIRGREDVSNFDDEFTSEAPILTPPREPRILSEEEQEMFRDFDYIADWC
Assay [10] addresses Tyrosine-protein kinase Fer (Homo sapiens, UniProt P16591).

Data on nine compounds can be found in ChEMBL document CHEMBL3991601, “The target landscape of clinical kinase drugs” (Science, 2017).

Calls of active or inactive are those of the source. For most assays here, no stated cut-off is given here; in the data, actives have a measured Kd and inactives only a lower limit.

Usually Kd stands for the free concentration of one partner at which half of the binding sites on the other are occupied at equilibrium, for simple one-to-one binding.

Chain of Tyrosine-protein kinase Fer (P16591 whole entry): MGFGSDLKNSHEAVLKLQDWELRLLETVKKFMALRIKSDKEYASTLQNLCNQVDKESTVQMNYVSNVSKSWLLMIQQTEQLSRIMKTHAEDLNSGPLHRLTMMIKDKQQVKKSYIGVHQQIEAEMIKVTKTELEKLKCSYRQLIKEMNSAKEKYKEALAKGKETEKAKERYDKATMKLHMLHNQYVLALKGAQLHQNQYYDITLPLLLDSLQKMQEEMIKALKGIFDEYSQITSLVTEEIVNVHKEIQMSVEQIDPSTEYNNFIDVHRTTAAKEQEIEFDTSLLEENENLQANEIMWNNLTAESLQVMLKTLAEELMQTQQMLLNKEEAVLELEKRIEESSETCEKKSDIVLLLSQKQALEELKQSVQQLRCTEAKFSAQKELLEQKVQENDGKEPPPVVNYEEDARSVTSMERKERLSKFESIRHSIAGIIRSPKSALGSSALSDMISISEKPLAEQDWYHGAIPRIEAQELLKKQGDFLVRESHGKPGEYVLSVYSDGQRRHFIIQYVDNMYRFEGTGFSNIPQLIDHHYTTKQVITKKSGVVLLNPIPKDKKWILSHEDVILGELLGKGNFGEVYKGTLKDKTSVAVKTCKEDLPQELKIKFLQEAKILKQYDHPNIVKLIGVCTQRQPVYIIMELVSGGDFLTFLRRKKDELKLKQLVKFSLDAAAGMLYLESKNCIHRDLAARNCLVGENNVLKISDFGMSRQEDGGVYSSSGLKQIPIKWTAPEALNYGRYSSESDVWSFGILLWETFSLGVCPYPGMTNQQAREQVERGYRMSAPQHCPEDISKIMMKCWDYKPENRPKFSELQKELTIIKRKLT
Chain of U5 small nuclear ribonucleoprotein 200 kDa helicase (O75643 whole entry): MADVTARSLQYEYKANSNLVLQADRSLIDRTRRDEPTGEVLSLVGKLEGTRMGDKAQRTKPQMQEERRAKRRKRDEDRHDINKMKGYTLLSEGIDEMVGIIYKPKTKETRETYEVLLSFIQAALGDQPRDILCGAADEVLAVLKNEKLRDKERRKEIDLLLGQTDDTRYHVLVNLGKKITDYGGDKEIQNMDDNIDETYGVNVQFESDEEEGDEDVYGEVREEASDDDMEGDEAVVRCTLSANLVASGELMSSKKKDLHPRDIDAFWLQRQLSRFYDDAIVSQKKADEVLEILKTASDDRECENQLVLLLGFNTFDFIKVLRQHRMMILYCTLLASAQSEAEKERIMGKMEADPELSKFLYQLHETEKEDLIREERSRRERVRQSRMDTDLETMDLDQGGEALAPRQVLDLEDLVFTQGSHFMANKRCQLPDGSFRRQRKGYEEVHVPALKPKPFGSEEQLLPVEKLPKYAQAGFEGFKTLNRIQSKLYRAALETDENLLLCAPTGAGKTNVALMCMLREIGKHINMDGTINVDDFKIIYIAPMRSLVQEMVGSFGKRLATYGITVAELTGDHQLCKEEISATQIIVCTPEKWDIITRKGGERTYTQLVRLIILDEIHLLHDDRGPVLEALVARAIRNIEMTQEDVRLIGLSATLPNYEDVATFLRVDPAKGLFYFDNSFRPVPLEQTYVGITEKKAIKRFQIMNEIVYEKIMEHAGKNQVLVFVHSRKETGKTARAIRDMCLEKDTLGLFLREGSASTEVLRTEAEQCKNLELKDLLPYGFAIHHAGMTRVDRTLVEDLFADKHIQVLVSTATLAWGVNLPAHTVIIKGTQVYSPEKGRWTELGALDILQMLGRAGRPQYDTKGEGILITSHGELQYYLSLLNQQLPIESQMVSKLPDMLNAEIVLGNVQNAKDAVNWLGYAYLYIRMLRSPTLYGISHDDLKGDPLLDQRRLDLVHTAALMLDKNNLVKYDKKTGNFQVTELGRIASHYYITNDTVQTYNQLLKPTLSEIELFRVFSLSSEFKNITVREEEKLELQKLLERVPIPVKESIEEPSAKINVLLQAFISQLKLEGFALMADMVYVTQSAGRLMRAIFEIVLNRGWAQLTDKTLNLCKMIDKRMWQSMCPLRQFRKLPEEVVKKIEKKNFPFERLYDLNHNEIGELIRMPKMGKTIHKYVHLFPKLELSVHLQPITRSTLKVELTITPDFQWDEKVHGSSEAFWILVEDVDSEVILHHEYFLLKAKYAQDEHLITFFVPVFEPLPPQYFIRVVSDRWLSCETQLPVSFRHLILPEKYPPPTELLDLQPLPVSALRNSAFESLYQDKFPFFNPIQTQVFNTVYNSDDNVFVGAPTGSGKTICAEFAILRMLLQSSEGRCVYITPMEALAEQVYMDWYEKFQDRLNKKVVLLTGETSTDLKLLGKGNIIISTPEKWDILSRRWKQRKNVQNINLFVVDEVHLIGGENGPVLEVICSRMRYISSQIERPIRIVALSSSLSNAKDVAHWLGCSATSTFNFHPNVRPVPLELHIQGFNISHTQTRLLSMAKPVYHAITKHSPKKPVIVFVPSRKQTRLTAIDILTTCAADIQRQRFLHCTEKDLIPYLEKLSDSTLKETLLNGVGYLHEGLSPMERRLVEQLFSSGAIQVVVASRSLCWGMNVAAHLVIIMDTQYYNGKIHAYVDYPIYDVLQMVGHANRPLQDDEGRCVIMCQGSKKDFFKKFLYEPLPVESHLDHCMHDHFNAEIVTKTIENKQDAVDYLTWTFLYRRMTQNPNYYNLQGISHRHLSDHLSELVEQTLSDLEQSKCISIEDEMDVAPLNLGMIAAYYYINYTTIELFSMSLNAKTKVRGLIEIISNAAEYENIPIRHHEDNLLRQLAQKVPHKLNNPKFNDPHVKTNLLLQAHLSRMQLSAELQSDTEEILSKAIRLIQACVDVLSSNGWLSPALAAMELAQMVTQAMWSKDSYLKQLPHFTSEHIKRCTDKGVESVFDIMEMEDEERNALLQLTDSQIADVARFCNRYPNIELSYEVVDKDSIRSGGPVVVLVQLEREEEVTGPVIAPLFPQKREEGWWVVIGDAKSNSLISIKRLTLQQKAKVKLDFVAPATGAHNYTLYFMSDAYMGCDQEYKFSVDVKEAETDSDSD

Turning to `CO[C@H]1C[C@@H]2CC[C@@H](C)[C@@](O)(O2)C(=O)C(=O)N2CCCC[C@H]2C(=O)O[C@H]([C@H](C)C[C@@H]2CC[C@@H](O)[C@H](OC)C2)CC(=O)[C@H](C)/C=C(\C)[C@@H](O)[C@@H](OC)C(=O)[C@H](C)C[C@H](C)/C=C/C=C/C=C/1C` [SIROLIMUS], the Kd in assay [1], in [2], in [3], in assay [4], in assay [5] and in assay [6] was > 30 µM (inactive) each time. Moreover, the Kd in assay [7], in assay [8], in assay [9] and in assay [10] was > 30 µM (inactive) each time.
As for `CCS(=O)(=O)c1cccc(-c2cc(C(=O)NC3CCN(C)CC3)c(C)c3[nH]c4ncc(C)cc4c23)c1` [TAK-901], the Kd in assay [1] was 2.76 µM (active); in assay [2] it was > 30 µM (inactive); in [3], 0.695 µM (active); in assay [4] it was > 30 µM (inactive); in [5] it was 4.66 µM (active); in [6], 0.357 µM (active). The Kd in assay [7] is > 30 µM (inactive); in assay [8] it was > 30 µM (inactive); in [9], > 30 µM (inactive); in assay [10] it was 0.574 µM (active).
`CO[C@H]1C[C@@H]2CC[C@@H](C)[C@@](O)(O2)C(=O)C(=O)N2CCCC[C@H]2C(=O)O[C@H]([C@H](C)C[C@@H]2CC[C@@H](OC(=O)C(C)(CO)CO)[C@H](OC)C2)CC(=O)[C@H](C)/C=C(\C)[C@@H](O)[C@@H](OC)C(=O)[C@H](C)C[C@H](C)/C=C/C=C/C=C/1C` [TEMSIROLIMUS]: the Kd in [1], in [2], in assay [3], in assay [4], in assay [5] and in [6] was > 30 µM (inactive) throughout. The Kd in assay [7], in assay [8], in assay [9] and in assay [10] was > 30 µM (inactive) in each case.
On to `COc1cc2c(Nc3ccc(Cl)c(Cl)c3F)ncnc2cc1OC[C@@H]1C[C@@H]2CN(C)C[C@@H]2C1` [TESEVATINIB], for which the Kd in [1] was > 30 µM (inactive); in [2], > 30 µM (inactive); in assay [3], > 30 µM (inactive); in [4], > 30 µM (inactive); in assay [5] it was > 30 µM (inactive); in [6], 1.13 µM (active). For the same compound, the Kd in [7], in [8], in [9] and in assay [10] was > 30 µM (inactive) each time.
Take `O=C(Cc1ccc(-c2ccc(OCCN3CCOCC3)cc2)cn1)NCc1ccccc1` [TIRBANIBULIN]: the Kd in assay [1], in assay [2], in assay [3], in [4], in [5] and in assay [6] was > 30 µM (inactive) throughout. The Kd in [7], in [8], in assay [9] and in assay [10] was > 30 µM (inactive) throughout.
Consider `O=C1NC(=O)[C@@H](c2cn3c4c(cccc24)CCC3)[C@@H]1c1c[nH]c2ccccc12` [TIVANTINIB], for which the Kd in [1], in [2], in [3], in assay [4], in assay [5] and in [6] was > 30 µM (inactive) throughout. The Kd in assay [7], in assay [8], in [9] and in assay [10] was > 30 µM (inactive) throughout.
Regarding `C[C@@H](NC(=O)c1ncnc(N)c1Cl)c1ncc(C(=O)Nc2cc(C(F)(F)F)c(Cl)cn2)s1` [TOVORAFENIB], the Kd in [1], in [2], in assay [3], in assay [4], in assay [5] and in assay [6] was > 30 µM (inactive) throughout. In addition, the Kd in assay [7], in assay [8], in assay [9] and in assay [10] was > 30 µM (inactive) each time.
Turning to `Cc1cc(Nc2ncnc3ccc(NC4=NC(C)(C)CO4)cc23)ccc1Oc1ccn2ncnc2c1` [TUCATINIB], the Kd in assay [1], in [2], in [3], in [4], in assay [5] and in [6] was > 30 µM (inactive) throughout. In addition, the Kd in assay [7], in assay [8], in assay [9] and in assay [10] was > 30 µM (inactive) each time.
In the case of `Cn1ncc(Cl)c1-c1cc(C(=O)N[C@H](CN)Cc2ccc(F)c(F)c2)oc1Cl` [UPROSERTIB], the Kd in assay [1], in [2], in [3], in [4], in assay [5] and in assay [6] was > 30 µM (inactive) throughout. Also, the Kd in assay [7], in assay [8], in assay [9] and in [10] was > 30 µM (inactive) in each case.
